The target in one experiment is T1, PLA2G16 (Homo sapiens, UniProt P53816).
T1 construct: Hexa-His (N); made in house; host or cells: E. coli BL21(DE3)
T1 sequence (P53816 1-162): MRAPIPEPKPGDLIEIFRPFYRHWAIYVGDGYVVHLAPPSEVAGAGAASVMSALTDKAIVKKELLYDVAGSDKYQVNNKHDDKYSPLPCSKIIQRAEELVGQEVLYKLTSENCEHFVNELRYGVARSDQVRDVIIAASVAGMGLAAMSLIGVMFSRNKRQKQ
The experiment can be described thus: Enzyme activity assay for PLA2G16 (Red/Green BODIPY PC-A2 fluorescence). The class given is biochemical. The note with it: His-tagged PLA2G16, 4 min pre-incubation, 2 nM to 50 μM; read-out: IC50 values of the compounds determined in the enzyme activity assay for PLA2G16. The gist of the method: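 N-His-tagged human PLA2G16 from E. coli, Ni-NTA purified. Pre-incubated 4 min with compound (2 nM–50 μM final) in pH 8.5 Tris/NaCl buffer with 5 mM glutathione, then BODIPY PC-A2 in DOPC/DOPG/cholesterol vesicles added. Fluorescence (ex 480/em 530 nm) increase over 10 min taken as activity; IC50 by non-linear regression.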

Experiment [1] relates to picornaviruses (CVB1, HRV-A2, HRV-A23, EV-68). The experiment in a line: Anti-picornavirus cytopathic effect (CPE) reduction assay on HeLa H1 cells. The experiment is classed as cell-based. The note with it: Enterovirus B, HeLa H1, 48 h, HeLa H1 cells, 48 h, category from averaging the EC50 values from four picornaviruses (CVB1, HRV-A2, HRV-A23, EV68); read-out: EC50 values of the compounds determined in the anti-picornavirus assay. The gist of the method: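 HeLa H1 cells pre-treated 2 h with serially diluted compound in DMEM/2% FBS, then infected at an MOI giving full CPE in 2 days. After 48 h at 37° C, viability read by CellTiterBlue fluorescence (ex 560/em 590 nm), normalised to infected and uninfected vehicle controls; EC50 by non-linear regression, category from mean of four viruses.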
In general terms: Damage to the host cells serves as the signal in cytopathic effect assays.

In general, IC50 refers to the point on the concentration scale where inhibition reaches its midpoint. As usually defined, the EC50 is the concentration needed to bring the measured effect to its halfway point. For the molecule `CCNC(=O)C(=O)[C@H]1CCC(=O)N1Cc1ccc(Cl)cc1` [FP 285, 2-[(2R)-1-[(4-Chlorophenyl)methyl]-5-oxopyrrolidin-2-yl]-N-ethyl-2-oxoacetamide], the IC50 on PLA2G16 is less than 1 µM. Also, the EC50 in experiment [1] is less than 1 µM.
Consider `CCC1CC(=O)N(Cc2ccccc2)C1C(=O)C(=O)NC1CC1` (centres unmarked) [FP 343, 2-(1-Benzyl-3-ethyl-5-oxopyrrolidin-2-yl)-N-cyclopropyl-2-oxoacetamide], for which the IC50 at PLA2G16 was less than 1 µM. For the same molecule, the EC50 in experiment [1] is less than 1 µM.
Take `COc1cccc(Cl)c1C(=O)NC(C)C(=O)C(=O)NCC1CC1` (centres unmarked) [FP 212, 3-[(2-Chloro-6-methoxyphenyl)formamido]-N-(cyclopropylmethyl)-2-oxobutanamide]: at PLA2G16, the IC50 was less than 1 µM. Also, in experiment [1], the EC50 fell in the range of 1 to 10 µM.
For `Cn1nccc1CNC(=O)C(=O)[C@H]1CCC(=O)N1Cc1ccccc1` [FP 296, 2-[(2R)-1-Benzyl-5-oxopyrrolidin-2-yl]-N-[(1-methyl-1H-pyrazol-5-yl)methyl]-2-oxoacetamide], the IC50 at PLA2G16 is less than 1 µM. Moreover, in experiment [1], the EC50 was 1 to 10 µM.
On the same counts, the results for `O=C(NC1CC1)C(=O)C1CCC(=O)N1Cc1ccc(Cl)c(F)c1` (centres unmarked) [FP 232, 2-{1-[(4-Chloro-3-fluorophenyl)methyl]-5-oxopyrrolidin-2-yl}-N-cyclopropyl-2-oxoacetamide] are less than 1 µM and 1 to 10 µM.
The matching figures for `CC(=O)NCCCCCCCNC(=O)C(=O)C1CCC(=O)N1Cc1ccccc1` (centres unmarked) [FP 326, 2-(1-Benzyl-5-oxopyrrolidin-2-yl)-N-(7-acetamidoheptyl)-2-oxoacetamide]: less than 1 µM and 1 to 10 µM.
On the same counts, the results for `COc1cc(F)ccc1N(C=O)C(C)C(=O)C(=O)NCc1cccc(Cl)c1` (centres unmarked) [FP 8, N-[(3-Chlorophenyl)methyl]-3-[N-(4-fluoro-2-methoxyphenyl)formamido]-2-oxobutanamide] are less than 1 µM and less than 1 µM.
As to `CC(C(=O)C(=O)NCCOc1ccc(C(N)=O)cc1)N(C=O)C1CCCCC1` (centres unmarked) [FP 114, 4-{2-[3-(N-Cyclohexylformamido)-2-oxobutanamido]ethoxy}benzamide], the half-maximal inhibitory concentration (IC50) at PLA2G16 was less than 1 µM. Also, the EC50 in experiment [1] was greater than 10 µM.
Consider `CCCC(NC(=O)CN1CCN(C)CC1)C(=O)C(=O)NCC1CCCCC1` (centres unmarked) [FP 214, N-(Cyclohexylmethyl)-3-[2-(4-methylpiperazin-1-yl)acetamido]-2-oxohexanamide], for which the IC50 at PLA2G16 lay in the range of 1 to 10 µM. Besides, the EC50 in experiment [1] was greater than 10 µM.
As for `CC1(C)CC(=O)N(Cc2ccccc2)C1C(=O)C(=O)NC1CC1` (centres unmarked) [FP 349, 2-(1-Benzyl-3,3-dimethyl-5-oxopyrrolidin-2-yl)-N-cyclopropyl-2-oxoacetamide], at PLA2G16, the 50% inhibitory concentration (IC50) is less than 1 µM. Moreover, in experiment [1], the EC50 lay within 1 to 10 µM.
Regarding `CC(C(=O)C(=O)NCc1cccc(Cl)c1)N(C=O)CC1CCOCC1` (centres unmarked) [FP 24, N-[(3-Chlorophenyl)methyl]-3-{N[(oxan-4-yl)methyl]formamido}-2-oxobutanamide], the IC50 at PLA2G16 was less than 1 µM. In addition, in experiment [1], the EC50 was in the range of 1 to 10 µM.
The matching figures for `CC(C(=O)C(=O)NCC1CCCCC1)N(C=O)C1CCCCC1` (centres unmarked) [FP 52, 3-(N-Cyclohexylformamido)-N-(cyclohexylmethyl)-2-oxobutanamide]: less than 1 µM and less than 1 µM.
With `COc1ccccc1N(C=O)C(C)C(=O)C(=O)NC(C)C` (centres unmarked) [FP 28, 3-[N-(2-Methoxyphenyl)formamido]-2-oxo-N-(propan-2-yl)butanamide], at PLA2G16, the IC50 was less than 1 µM. Besides, the EC50 in experiment [1] was in the range of 1 to 10 µM.
As for `CC(C(=O)C(=O)NCC1CCCCC1)N(C)C(=O)C1CC1` (centres unmarked) [FP 146, N-(Cyclohexylmethyl)-3-(1-cyclopropyl-N-methylformamido)-2-oxobutanamide], the IC50 on PLA2G16 was less than 1 µM. In addition, the EC50 in experiment [1] lay in the range of 1 to 10 µM.
On the same counts, the results for `CC(C)CNC(=O)C(=O)C(C)OC1CCCCC1` (centres unmarked) [FP 124, 3-(Cyclohexyloxy)-N-(2-methylpropyl)-2-oxobutanamide] are less than 1 µM and less than 1 µM.
On the same counts, the results for `CC(C(=O)C(=O)NCc1cccc(Cl)c1)N(C=O)CC(C)(C)C` (centres unmarked) [FP 23, N-[(3-Chlorophenyl)methyl]-3-[N-(2,2-dimethylpropyl)formamido]-2-oxobutanamide] are less than 1 µM and less than 1 µM.
As to `Cc1ccccc1S(=O)(=O)NC(C)C(=O)C(=O)NCC1CC1` (centres unmarked) [FP 190, N-(Cyclopropylmethyl)-3-(2-methylbenzenesulfonamido)-2-oxobutanamide], the IC50 at PLA2G16 was less than 1 µM. In experiment [1], the EC50 lay in the range of 1 to 10 µM.
As to `O=C(NC1CN(C(=O)C2CCCC2)C1)C(=O)[C@H]1CCC(=O)N1Cc1ccccc1` [FP 319, 2-[(2R)-1-Benzyl-5-oxopyrrolidin-2-yl]-N-(1-cyclopentanecarbonylazetidin-3-yl)-2-oxoacetamide], the half-maximal inhibitory concentration (IC50) at PLA2G16 is less than 1 µM. Also, the EC50 in experiment [1] lay within 1 to 10 µM.
The matching figures for `O=C(NCCN1CCCCC1=O)C(=O)[C@H]1CCC(=O)N1Cc1ccccc1` [FP 292, 2-[(2R)-1-Benzyl-5-oxopyrrolidin-2-yl]-2-oxo-N-[2-(2-oxopiperidin-1-yl)ethyl]acetamide]: less than 1 µM and 1 to 10 µM.
The matching figures for `CC(NS(=O)(=O)c1ccccc1Cl)C(=O)C(=O)NCC1CC1` (centres unmarked) [FP 191, 3-(2-Chlorobenzenesulfonamido)-N-(cyclopropylmethyl)-2-oxobutanamide]: less than 1 µM and 1 to 10 µM.
With `CC(NC(=O)c1ccccc1)C(=O)C(=O)NCC1CC1` (centres unmarked) [FP 178, N-(Cyclopropylmethyl)-2-oxo-3-(phenylformamido)butanamide], the IC50 at PLA2G16 is less than 1 µM. Also, the EC50 in experiment [1] lay in the range of 1 to 10 µM.
On the same counts, the results for `CNC(=O)C(=O)C1N(Cc2ccccc2)C(=O)CC12CC2` (centres unmarked) [FP 347, 2-{5-Benzyl-6-oxo-5-azaspiro[2.4]heptan-4-yl}-N-methyl-2-oxoacetamide] are less than 1 µM and less than 1 µM.
Consider `CC(C)NC(=O)C(=O)C(C)N(C=O)CC(C)(C)C` (centres unmarked) [FP 29, 3-[N-(2,2-Dimethylpropyl)formamido]-2-oxo-N-(propan-2-yl)butanamide], for which the IC50 at PLA2G16 was less than 1 µM. In experiment [1], the EC50 fell in the range of 1 to 10 µM.
The matching figures for `COc1ccc(CNC(=O)C(=O)C(C)N(C=O)c2ccccc2OC)cc1` (centres unmarked) [FP 92, 3-[N-(2-Methoxyphenyl)formamido]-N-[(4-methoxyphenyl)methyl]-2-oxobutanamide]: less than 1 µM and 1 to 10 µM.
With `COc1ccccc1N(C=O)C(C)C(=O)C(=O)NC(C)(C)c1cccc(Cl)c1` (centres unmarked) [FP 11, N-[2-(3-Chlorophenyl)propan-2-yl]-3-[N-(2-methoxyphenyl)formamido]-2-oxobutanamide], the IC50 on PLA2G16 was less than 1 µM. In addition, in experiment [1], the EC50 was less than 1 µM.
Regarding `CC(C(=O)C(=O)NCC1CCCCC1)N(C=O)CC1CCN(C(=O)OC(C)(C)C)CC1` (centres unmarked) [FP 53, tert-Butyl 4-[(N-{1-[(cyclohexylmethyl)carbamoyl]-1-oxopropan-2-yl}formamido)-methyl]piperidine-1-carboxylate], the IC50 at PLA2G16 is less than 1 µM. Besides, the EC50 in experiment [1] lay within 1 to 10 µM.
The matching figures for `O=CN(Cc1ccccc1)[C@@H](Cc1c[nH]cn1)C(=O)C(=O)NCC1CC1` [FP 119, (3S)-3-(N-Benzylformamido)-N-(cyclopropylmethyl)-4-(1H-imidazol-4-yl)-2-oxobutanamide]: less than 1 µM and greater than 10 µM.
On the same counts, the results for `COc1ccccc1N(C=O)C(C)C(=O)C(=O)NCC1CC1` (centres unmarked) [FP 105, N-(Cyclopropylmethyl)-3-[N-(2-methoxyphenyl)formamido]-2-oxobutanamide] are less than 1 µM and 1 to 10 µM.
The matching figures for `COc1ccc(F)cc1N(C=O)C(C)C(=O)C(=O)NCc1cccc(Cl)c1` (centres unmarked) [FP 7, N-[(3-Chlorophenyl)methyl]-3-[N-(5-fluoro-2-methoxyphenyl)formamido]-2-oxobutanamide]: less than 1 µM and less than 1 µM.
As to `CC(C)C(OCC1CCOCC1)C(=O)C(=O)NCC1CC1` (centres unmarked) [FP 137, N-(Cyclopropylmethyl)-4-methyl-3-[(oxan-4-yl)methoxy]-2-oxopentanamide], at PLA2G16, the IC50 is less than 1 µM. Further, the EC50 in experiment [1] was greater than 10 µM.
Consider `CC(C(=O)C(=O)NCC1CC1)N(C=O)Cc1ccccc1` (centres unmarked) [FP 37, 3-(N-Benzylformamido)-N-(cyclopropyylmethyl)-2-oxobutanamide], for which the IC50 at PLA2G16 is less than 1 µM. Further, the EC50 in experiment [1] was less than 1 µM.
`CCCNC(=O)C(=O)[C@H]1CCC(=O)N1Cc1ccccc1` [FP 288, 2-[(2R)-1-Benzyl-5-oxopyrrolidin-2-yl]-2-oxo-N-propylacetamide]: the IC50 at PLA2G16 is less than 1 µM. Further, in experiment [1], the half-maximal effective concentration (EC50) was less than 1 µM.
Turning to `CC(NS(=O)(=O)c1ccccc1)C(=O)C(=O)NCC1CC1` (centres unmarked) [FP 187, 3-Benzenesulfonamido-N-(cyclopropylmethyl)-2-oxobutanamide], the IC50 at PLA2G16 was less than 1 µM. Besides, the EC50 in experiment [1] lay in the range of 1 to 10 µM.
On the same counts, the results for `CCC(=O)N(c1ccccc1OC)C(C)C(=O)C(=O)NCc1cccc(Cl)c1` (centres unmarked) [FP 141, N-[(3-Chlorophenyl)methyl]-3-[N-(2-methoxyphenyl)propanamido]-2-oxobutanamide] are less than 1 µM and 1 to 10 µM.
